Experimental data reported in patent publication US20240254119A1 (THIRD HARMONIC BIO, INC., priority 2022, published 2024).

Target: T1, PDGFRα (Homo sapiens, UniProt P16234)
T1 construct: purchased Millipore 14-467 (lot 26321_ACTI)
Test: HTRF biochemical assay, PDGFRα
Conditions: Table 4, read-out: PDFGRα Biochemical IC50 avg
Description: (§1) Exemplary compounds were tested for ability to inhibit the phosphorylation of a peptide substrate by the tyrosine kinase wt KIT, PDGFRα, or CSF-1R. Assay procedures and results are described below.
(§2) Enzyme, substrate, and cofactors (ATP and Mn^2+) are combined in a well of a microtiter plate and incubated for 3 hours at 25° C. At the end of the incubation, the reaction is quenched by the addition of an EDTA-containing buffer.
(§3) The substrate used in the CSF-1R and PDGFRα assay is FAM-[…]-CONH2 (FAM is carboxyfluorescein). Peptide should be >95% purity. The substrate for the KIT assay is FAM-[…]-NH2.
(§4) • 1. To a well of a 384-wellplate add 5 μL of 2× enzyme buffer (or control). • 2. Add 100 nL of 100× compound. Enzyme and compound may be pre-incubated at this time if desired. • 3. Add 5 μL of 2× substrate buffer. • 4. Incubate plate at 25° C. for 3 hours. • 5. Add 10 uL of anti-phosphotyrosine antibody buffer. • 6. Read plate in BioTek Synergy Reader. Reaction Conditions for wtKIT Assay

T1 sequence (P16234 24-1089): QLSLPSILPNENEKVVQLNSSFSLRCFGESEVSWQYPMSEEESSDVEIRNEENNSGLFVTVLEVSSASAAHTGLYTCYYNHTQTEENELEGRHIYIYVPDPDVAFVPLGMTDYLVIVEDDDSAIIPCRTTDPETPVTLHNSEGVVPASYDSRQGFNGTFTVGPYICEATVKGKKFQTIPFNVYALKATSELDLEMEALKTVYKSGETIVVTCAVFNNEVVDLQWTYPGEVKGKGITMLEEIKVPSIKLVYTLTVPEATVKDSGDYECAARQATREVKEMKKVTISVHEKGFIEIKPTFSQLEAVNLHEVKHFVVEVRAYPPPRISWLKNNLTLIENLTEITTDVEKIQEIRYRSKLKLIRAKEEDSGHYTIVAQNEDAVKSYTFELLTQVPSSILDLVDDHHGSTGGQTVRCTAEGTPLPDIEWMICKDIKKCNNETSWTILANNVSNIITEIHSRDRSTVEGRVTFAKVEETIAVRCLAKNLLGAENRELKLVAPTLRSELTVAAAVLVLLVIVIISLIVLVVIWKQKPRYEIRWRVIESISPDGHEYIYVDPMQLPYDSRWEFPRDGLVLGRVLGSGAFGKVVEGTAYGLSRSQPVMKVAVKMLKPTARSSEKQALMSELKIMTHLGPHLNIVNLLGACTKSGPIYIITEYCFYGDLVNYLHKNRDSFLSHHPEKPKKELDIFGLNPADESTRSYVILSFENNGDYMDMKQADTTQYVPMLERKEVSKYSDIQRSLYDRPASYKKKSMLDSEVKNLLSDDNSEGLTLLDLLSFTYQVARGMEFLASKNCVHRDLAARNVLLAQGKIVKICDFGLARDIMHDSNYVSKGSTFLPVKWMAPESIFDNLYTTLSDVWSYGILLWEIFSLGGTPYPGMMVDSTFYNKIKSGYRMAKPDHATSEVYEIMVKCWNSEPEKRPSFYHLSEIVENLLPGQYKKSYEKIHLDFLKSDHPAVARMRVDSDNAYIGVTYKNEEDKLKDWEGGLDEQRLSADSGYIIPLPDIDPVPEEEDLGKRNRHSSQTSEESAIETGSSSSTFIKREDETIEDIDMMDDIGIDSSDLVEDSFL

**Q.** For `Cc1ccc(-c2noc(C3CC3F)n2)cc1NC(=O)c1cnc2cc(COC3CC(O)C3)ccn12` (mixture of isomers) [Compound I-72], which IC50 is on record?
**A.** Its IC50 is 0.5 to 5 µM.

**Q.** Which IC50 does the source give for `Cc1ccc(-c2noc(C(F)C3CC3)n2)cc1NC(=O)c1cnc2ccccn12` (racemic) [Compound I-77] here?
**A.** The IC50 was 5 to 30 µM.

**Q.** For `Cc1ccc(-c2noc(C(O)C3CC3)n2)cc1NC(=O)c1cnc2ccccn12` (racemic) [Compound I-78], which IC50 is on record?
**A.** Its IC50 is 0.5 to 5 µM.

**Q.** Which IC50 does the source give for `Cc1ccc(-c2noc(C(O)C3CCC3)n2)cc1NC(=O)c1cnc2ccccn12` (racemic) [Compound I-79] here?
**A.** Its IC50 is 0.05 to 0.5 µM.

**Q.** For `Cc1ccc(-c2noc(CC(O)C(F)F)n2)cc1NC(=O)c1cnn2ccccc12` (single isomer, unassigned) [Compound I-75], which IC50 is on record?
**A.** Its IC50 is 0.5 to 5 µM.

**Q.** Which IC50 does the source give for `Cc1ccc(-c2noc(C[C@H](C)O)n2)cc1NC(=O)c1cnn2ccccc12` [Compound I-80] here?
**A.** Its IC50 is 5 to 30 µM.

**Q.** For `Cc1ccc(-c2noc(C[C@@H](C)O)n2)cc1NC(=O)c1cnn2ccccc12` [Compound I-81], which IC50 is on record?
**A.** The IC50 was 5 to 30 µM.

Target: T2, CSF-1R (Homo sapiens, UniProt P07333)
T2 construct: purchased Invitrogen PV3249 (lot 662393N)
Test: HTRF biochemical assay, CSF-1R
Conditions: Table 4
Description: as §1, §2, §3, §4

T2 sequence (P07333 20-972): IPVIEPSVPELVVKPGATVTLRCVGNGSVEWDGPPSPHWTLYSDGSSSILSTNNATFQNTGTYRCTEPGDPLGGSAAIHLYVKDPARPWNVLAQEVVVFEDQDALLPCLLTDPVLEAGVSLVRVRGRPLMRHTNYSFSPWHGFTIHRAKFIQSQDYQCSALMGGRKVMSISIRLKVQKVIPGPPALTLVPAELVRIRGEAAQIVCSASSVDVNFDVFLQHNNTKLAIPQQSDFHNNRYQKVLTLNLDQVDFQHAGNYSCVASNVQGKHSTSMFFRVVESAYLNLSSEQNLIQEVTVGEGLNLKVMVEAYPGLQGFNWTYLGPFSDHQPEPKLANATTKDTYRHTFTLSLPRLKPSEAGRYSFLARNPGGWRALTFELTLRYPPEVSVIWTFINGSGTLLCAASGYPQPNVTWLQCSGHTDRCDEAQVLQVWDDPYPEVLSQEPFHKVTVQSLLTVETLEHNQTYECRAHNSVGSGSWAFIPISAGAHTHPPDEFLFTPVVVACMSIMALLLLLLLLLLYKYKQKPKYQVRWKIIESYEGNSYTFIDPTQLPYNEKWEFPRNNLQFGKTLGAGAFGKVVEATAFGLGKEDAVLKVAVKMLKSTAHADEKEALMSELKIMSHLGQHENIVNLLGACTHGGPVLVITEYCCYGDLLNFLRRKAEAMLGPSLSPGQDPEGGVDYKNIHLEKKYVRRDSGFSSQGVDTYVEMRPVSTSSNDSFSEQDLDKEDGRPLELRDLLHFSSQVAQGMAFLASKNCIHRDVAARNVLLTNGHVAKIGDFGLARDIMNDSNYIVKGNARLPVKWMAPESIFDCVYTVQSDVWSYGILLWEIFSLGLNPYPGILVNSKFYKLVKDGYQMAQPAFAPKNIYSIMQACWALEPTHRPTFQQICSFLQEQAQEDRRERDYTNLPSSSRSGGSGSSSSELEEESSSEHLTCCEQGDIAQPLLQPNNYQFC

**Q.** For `Cc1ccc(-c2noc(C3CC3F)n2)cc1NC(=O)c1cnc2cc(COC3CC(O)C3)ccn12` (mixture of isomers) [Compound I-72], which IC50 is on record?
**A.** The IC50 was at most 0.05 µM.

**Q.** Which IC50 does the source give for `Cc1ccc(-c2noc(C(F)C3CC3)n2)cc1NC(=O)c1cnc2ccccn12` (racemic) [Compound I-77] here?
**A.** Its IC50 is 0.05 to 0.5 µM.

**Q.** Which IC50 does the source give for `Cc1ccc(-c2noc(C(O)C3CC3)n2)cc1NC(=O)c1cnc2ccccn12` (racemic) [Compound I-78] here?
**A.** Its IC50 is 0.05 to 0.5 µM.

**Q.** For `Cc1ccc(-c2noc(C(O)C3CCC3)n2)cc1NC(=O)c1cnc2ccccn12` (racemic) [Compound I-79], which IC50 is on record?
**A.** The IC50 was 0.05 to 0.5 µM.

**Q.** For `Cc1ccc(-c2noc(CC(O)C(F)F)n2)cc1NC(=O)c1cnn2ccccc12` (single isomer, unassigned) [Compound I-75], which IC50 is on record?
**A.** Its IC50 is 0.05 to 0.5 µM.

**Q.** For `Cc1ccc(-c2noc(C[C@H](C)O)n2)cc1NC(=O)c1cnn2ccccc12` [Compound I-80], which IC50 is on record?
**A.** Its IC50 is 0.05 to 0.5 µM.

**Q.** With `Cc1ccc(-c2noc(C[C@@H](C)O)n2)cc1NC(=O)c1cnn2ccccc12` [Compound I-81] as the compound, how does the IC50 read?
**A.** The IC50 was 0.5 to 5 µM.

System: KIT phosphorylation in M-07e cells
Test: Cell-based KIT phosphorylation in M-07e cells by pKIT ELISA
Parameters: species or system human
Conditions: SCF stimulation
Description: Exemplary compounds were tested for ability to inhibit KIT phosphorylation using M-07e cells as monitored by pKIT ELISA. M-07e cells are also represented as M-07E, M-07e, M07-e, M07e, Mo7e, MO7e, M07E and MO7E. Assay procedures and results are described below.
Part I—Procedures for Determining KIT Inhibition inM-07e Cells Using pKTT ELISA Reagents and consumables: • M-07e cells: Initially obtained from Accegen, cat #ABC-TC1313 • p-cKIT Capture ELISA antibody: anti-Human Phospho-CD117/c-kit, R&D cat #DYC3527-5 • Anti-pY-HIRP antibody: R&D cat #DYC3527-5 • 25× wash buffer: Quantikine ELISA Wash Buffer 1, R&D cat #WA126 • PBS: R&D cat #DY006 • 96 well ELISA plates: Clear Polystyrene Microplates, R&D Cat #DY990 • 96 well Tissue culture plates: Corning® 96 Well TC-Treated Microplates, cat #CLS3894 • RPMI medium: ATCC® RPMI-1640 Medium, Cat #30-2001 • FBS: Fetal Bovine Serum, certified, United States Gibco, Thermo-Fisher 16000044 • GM-CSF: Recombinant Human GM-CSF Protein, R&D cat #215-GM • SCF: Recombinant Human SCF Protein, R&D cat #255-SC
• 1. Prepare cells: • a. Culture M-07e cells in RPMI medium+20% serum+GM-CSF+penstrep • To make 50 mL of growth medium • i. 40 mL RPMI media • ii. 10 mL FBS • iii. 10 uL of GM-CSF (100 ug/mL stock) • iv. 0.5 mL pen strep (100×) • b. Harvest cells • c. Re-suspend cells in 100% RPMI media (without serum) to final concentration of 1 million cells/mL • d. Transfer 100 uL of cell solution to 11 columns of a 96 well flat bottom cell culture plate • e. Incubate cells over night at 37 C • 2. Prepare ELISA Plates: • a. Dilute capture antibody to concentration 4 ug/mL in PBS • b. Coat 96 well microplates with 100 uL of capture antibody • c. Seal plates and incubate at RT overnight • d. Wash plates with 300 uL of wash buffer • e. Repeat wash • f. Treat plates with 300 uL of blocking buffer at RT for 1 hour • 3. Addition of compounds: • a. Prepare compound dilutions in RPMI media • i. Top test concentration is 1 uM • ii. Serially dilute compounds 3× for a total of 8 concentrations • b. Add 10 uL of 10× compound dilutions to cells • i. No compounds added in column 11 (for controls) • c. Incubate cells with compounds for 2 hours at 37 C • d. Stimulate cells with SCF for 5 min at concentration of 100 ng/mL (final) • i. In column 11 stimulate top 4 wells. Leave bottom 4 wells unstimulated • e. Remove cell culture media with multichannel pipet • f. Add 110 uL of Lysis buffer to all wells • g. Incubate plates at RT for 30 min while shaking • 4. Transfer 100 uL of cell lysis to each prepared Elisa plate • 5. Add 100 uL of the standard pc-KIT dilutions to the standard wells in column 12 • a. Top concentration=2000 pg/mL • b. 2× dilutions • 6. Incubate ELISA plate with cell lysate for 2 hours at RT • 7. Wash Plate with wash buffer (wash 1) • 8. Repeat wash (wash 2) • 9. […] Add 100 uL of diluted anti-pY-HRP (1/1000 dilution in detection antibody dilution buffer) and incubate 2 hours at RT • 11. Wash plate with wash buffer (wash 1) • 12. Repeat wash (wash 2) • 13. Repeat wash (wash 3) • 14. Add 100 uL of substrate solution to each well • 15. Incubate plates 20 min • Note: Plate development is indicated by aqua color • 16. Add 50 uL of stop solution to each well • 17. Determine optical density on Bitek Synergy Neo2: • a. Make new experiment
Select absorbance 1 set to 450 nm

**Q.** With `Cc1ccc(-c2noc(C3CC3F)n2)cc1NC(=O)c1cnc2cc(COC3CC(O)C3)ccn12` (mixture of isomers) [Compound I-72] as the compound, how does the IC50 read?
**A.** The IC50 was at most 0.05 µM.

**Q.** For `Cc1ccc(-c2noc(C(F)C3CC3)n2)cc1NC(=O)c1cnc2ccccn12` (racemic) [Compound I-77], which IC50 is on record?
**A.** Its IC50 is at most 0.05 µM.

**Q.** With `Cc1ccc(-c2noc(C(O)C3CC3)n2)cc1NC(=O)c1cnc2ccccn12` (racemic) [Compound I-78] as the compound, how does the IC50 read?
**A.** Its IC50 is at most 0.05 µM.

**Q.** For `Cc1ccc(-c2noc(C(O)C3CCC3)n2)cc1NC(=O)c1cnc2ccccn12` (racemic) [Compound I-79], which IC50 is on record?
**A.** The IC50 was at most 0.05 µM.

**Q.** Which IC50 does the source give for `Cc1ccc(-c2noc(CC(O)C(F)F)n2)cc1NC(=O)c1cnn2ccccc12` (single isomer, unassigned) [Compound I-75] here?
**A.** Its IC50 is at most 0.05 µM.

**Q.** With `Cc1ccc(-c2noc(C[C@H](C)O)n2)cc1NC(=O)c1cnn2ccccc12` [Compound I-80] as the compound, how does the IC50 read?
**A.** Its IC50 is at most 0.05 µM.

**Q.** Which IC50 does the source give for `Cc1ccc(-c2noc(C[C@@H](C)O)n2)cc1NC(=O)c1cnn2ccccc12` [Compound I-81] here?
**A.** The IC50 was at most 0.05 µM.

Target: T3, wtKIT (Homo sapiens, UniProt P10721)
T3 construct: 1888289AM in the reaction mixtures
Test: HTRF biochemical assay, wtKIT (phosphorylation of a peptide substrate)
Conditions: Table 4
Summary of the method: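 HTRF read-out of FAM-peptide (1 µM) phosphorylation after anti-phosphotyrosine antibody addition and EDTA quench. Reaction: 5.0 nM wtKIT, 400 µM ATP, 10 mM Mn2+, HEPES pH 7.5, 1% DMSO, 3 h, 25 °C; optional enzyme-compound preincubation; enzyme level set for 10-20% conversion.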

T3 sequence (P10721 26-976): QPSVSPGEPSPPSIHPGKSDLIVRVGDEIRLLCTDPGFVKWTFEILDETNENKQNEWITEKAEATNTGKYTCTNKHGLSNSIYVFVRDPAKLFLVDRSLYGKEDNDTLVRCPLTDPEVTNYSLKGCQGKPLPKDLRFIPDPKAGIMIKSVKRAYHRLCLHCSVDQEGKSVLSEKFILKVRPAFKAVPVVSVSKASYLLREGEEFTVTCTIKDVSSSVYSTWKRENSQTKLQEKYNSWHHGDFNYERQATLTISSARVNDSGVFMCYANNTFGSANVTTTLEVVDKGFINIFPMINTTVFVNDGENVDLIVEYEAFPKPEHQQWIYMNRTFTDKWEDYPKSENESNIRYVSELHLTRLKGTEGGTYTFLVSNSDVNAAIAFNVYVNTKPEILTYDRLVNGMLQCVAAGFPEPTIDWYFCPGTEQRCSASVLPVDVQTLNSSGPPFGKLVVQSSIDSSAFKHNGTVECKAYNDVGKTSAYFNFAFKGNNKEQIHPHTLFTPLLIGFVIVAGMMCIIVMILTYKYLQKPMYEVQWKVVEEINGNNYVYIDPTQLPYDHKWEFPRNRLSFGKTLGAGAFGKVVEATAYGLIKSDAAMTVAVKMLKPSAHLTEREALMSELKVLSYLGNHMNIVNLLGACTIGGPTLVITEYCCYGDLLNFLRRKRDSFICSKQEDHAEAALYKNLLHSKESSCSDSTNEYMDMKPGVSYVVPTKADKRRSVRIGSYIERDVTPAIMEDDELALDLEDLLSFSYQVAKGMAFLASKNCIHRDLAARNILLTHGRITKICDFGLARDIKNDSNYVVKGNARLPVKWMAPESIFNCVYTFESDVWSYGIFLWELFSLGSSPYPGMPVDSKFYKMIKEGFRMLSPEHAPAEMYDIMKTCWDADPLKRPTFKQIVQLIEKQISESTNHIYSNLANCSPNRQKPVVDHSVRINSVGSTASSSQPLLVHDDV

**Q.** With `Cc1ccc(-c2noc(C3CC3F)n2)cc1NC(=O)c1cnc2cc(COC3CC(O)C3)ccn12` (mixture of isomers) [Compound I-72] as the compound, how does the IC50 read?
**A.** Its IC50 is at most 0.05 µM.

**Q.** For `Cc1ccc(-c2noc(C(F)C3CC3)n2)cc1NC(=O)c1cnc2ccccn12` (racemic) [Compound I-77], which IC50 is on record?
**A.** The IC50 was at most 0.05 µM.

**Q.** Which IC50 does the source give for `Cc1ccc(-c2noc(C(O)C3CC3)n2)cc1NC(=O)c1cnc2ccccn12` (racemic) [Compound I-78] here?
**A.** The IC50 was at most 0.05 µM.

**Q.** With `Cc1ccc(-c2noc(C(O)C3CCC3)n2)cc1NC(=O)c1cnc2ccccn12` (racemic) [Compound I-79] as the compound, how does the IC50 read?
**A.** Its IC50 is at most 0.05 µM.

**Q.** For `Cc1ccc(-c2noc(CC(O)C(F)F)n2)cc1NC(=O)c1cnn2ccccc12` (single isomer, unassigned) [Compound I-75], which IC50 is on record?
**A.** The IC50 was at most 0.05 µM.

**Q.** With `Cc1ccc(-c2noc(C[C@H](C)O)n2)cc1NC(=O)c1cnn2ccccc12` [Compound I-80] as the compound, how does the IC50 read?
**A.** Its IC50 is 0.05 to 0.5 µM.

**Q.** For `Cc1ccc(-c2noc(C[C@@H](C)O)n2)cc1NC(=O)c1cnn2ccccc12` [Compound I-81], which IC50 is on record?
**A.** Its IC50 is 0.05 to 0.5 µM.

System: not listed separately
Test: Kinetic solubility assay
Assay type: physicochemical
Conditions: kinetic solubility, 50 mM PB (pH 7.4), shaken 24 hours at RT
Summary of the method: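 Concentration in the filtrate was determined by UPLC-UV or HPLC-UV with a standard curve. Before that, compound (10 mM DMSO stock) in 50 mM PB at pH 7.4 was agitated 24 h at room temperature, then PTFE-filtered with centrifugation.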

**Q.** With `Cc1ccc(-c2noc(C3CC3F)n2)cc1NC(=O)c1cnc2cc(COC3CC(O)C3)ccn12` (mixture of isomers) [Compound I-72] as the compound, how does the “Solubility (μM)” value read?
**A.** Its value is “**** (a solubility less than or equal to 2 μM)”.

**Q.** Which “Solubility (μM)” value does the source give for `Cc1ccc(-c2noc(C(F)C3CC3)n2)cc1NC(=O)c1cnc2ccccn12` (racemic) [Compound I-77] here?
**A.** Its value is “**** (a solubility less than or equal to 2 μM)”.

**Q.** For `Cc1ccc(-c2noc(C(O)C3CC3)n2)cc1NC(=O)c1cnc2ccccn12` (racemic) [Compound I-78], which “Solubility (μM)” value is on record?
**A.** The value was “**** (a solubility less than or equal to 2 μM)”.

**Q.** With `Cc1ccc(-c2noc(C(O)C3CCC3)n2)cc1NC(=O)c1cnc2ccccn12` (racemic) [Compound I-79] as the compound, how does the “Solubility (μM)” value read?
**A.** The value was “**** (a solubility less than or equal to 2 μM)”.

**Q.** For `Cc1ccc(-c2noc(CC(O)C(F)F)n2)cc1NC(=O)c1cnn2ccccc12` (single isomer, unassigned) [Compound I-75], which “Solubility (μM)” value is on record?
**A.** The value was “**** (a solubility less than or equal to 2 μM)”.

**Q.** Which “Solubility (μM)” value does the source give for `Cc1ccc(-c2noc(C[C@H](C)O)n2)cc1NC(=O)c1cnn2ccccc12` [Compound I-80] here?
**A.** Its value is “* (a solubility greater than 50 μM)”.

**Q.** With `Cc1ccc(-c2noc(C[C@@H](C)O)n2)cc1NC(=O)c1cnn2ccccc12` [Compound I-81] as the compound, how does the “Solubility (μM)” value read?
**A.** The value was “** (a solubility greater than 10 μM and less than or equal to 50 μM)”.
